In publication PMC8502122, “A comprehensive method for determining cellular uptake of purine nucleoside phosphorylase and adenylosuccinate synthetase inhibitors by H. pylori” (Applied Microbiology and Biotechnology, 2021):
Like-named read-outs stand apart in the source and are kept apart here.

Assays:
[1] = system: H. pylori 26695 strain cells; assay: Cellular uptake (accumulation test), LC–MS detection; format: cell-based
Experimental: Formycin A, formycin B, and metronidazole were quantified through the ultra-performance liquid chromatography–tandem mass spectrometry. Samples were analyzed on Waters Xevo TQ-S with a standard ESI ion source coupled to Waters Acquity I-class UPLC.
Calibration samples were prepared by spiking blank growth medium F12 by the tested inhibitor, formycin A, formycin B, or metronidazole solutions. Internal standards (IS) were used to improve the accuracy of the method. To each pipetted sample from a particular experiment, the same amount of IS was added. As a detector response, we considered the ratio of the analyte peak area (variable) to the internal standard peak area (constant). This allows compensation for signal changes due to a possible instability of the ion source. If the ionization efficiency changes, both compounds are affected, but the surface peak ratio is maintained. […] Samples and calibrators were precipitated using IS solution and injected on the instrument.
Calibration curves were acquired by plotting the concentration of the standards against the ratio of the analyte peak area to the IS peak area. The calibration curve for FA in low concentration (35 μM) consisted of 7 samples in the range from 0.23 to 37.5 μM (R^2 = 0.997); for FA in high concentration (350 μM), the curve consisted of 6 samples in the range from 3.7 to 374.7 μM (R^2 = 0.995); for FB in low concentration (35 μM), the curve consisted of 7 samples in the range from 0.291 to 46.5 μM (R^2 = 0.999); for FB in high concentration (350 μM), the curve consisted of 7 samples in the range from 2.91 to 465.0 μM (R^2 = 0.999); and for MTZ (0.5 μM), the calibration curve was 8 samples in the range from 0.584 to 584.2 nM (R^2 = 0.995).
Chromatography was run on Waters Acquity BEH C18, 1.7 μm, 2.1 mm × 50 mm analytical column thermostated at 70 °C. The separations were done using 2.5 min gradient method. Phase A was 0.1% formic acid in MilliQ water; phase B was 0.1% formic acid in acetonitrile. For formycins the gradient started at 5% B and increased linearly to 50% B in 1.6 min; at 1.8 min it returned to the starting condition for column equilibration. For metronidazole the gradient started at 5% B and increased linearly to 50% B in 1.3 min; at 2.0 min it returned to the starting condition for column equilibration. The flow rate was 600 μL/min in both methods. The retention time of FA was 0.42 min, FB was 0.45 min (see Fig. 4a, b), and MTZ 0.88 min.

[2] = pKa values and ionic form at pH 7; format: physicochemical
Source text: Table 3 Partition coefficients of the neutral and ionized forms, and pKa values of the tested compounds, and of metronidazole used as a control in the cellular uptake studies. Partition coefficients of the ionic forms observed at pH 7 are marked bold | column: Ionic form at pH 7

[3] = molecular target: T1, purine nucleoside phosphorylase (PNP) from H. pylori 26695 strain (Helicobacter pylori, UniProt P56463); set-up: made in house; method as in Narczyk et al. [2018]; details: H. pylori 26695 strain PNP; ref Narczyk et al. [2018]; cited from earlier work
H. pylori SS1 strain = assay: MIC by broth microdilution and FICI of 1:1 combinations, strain SS1; format: cell-based; details: Helicobacter pylori, SS1STRAIN, 72 h, combinations 1:1 w/w given as inhibitor a/inhibitor b
Experimental: (§1) Minimal inhibitory concentration of inhibitors was determined by an in vitro broth microdilution assay (Knezevic et al. [2018]). Briefly, double-strength Brain heart infusion broth (BHI) was supplemented with yeast extract (2.5%), horse serum (5%), and IsoVitaleX (1%). In each well, twofold serial dilutions of inhibitors (from 1000 µg/mL to 7.8 μg/mL in a final volume) and an equal volume of inoculated double-strength BHI were added (approx. 1 × 10^6 CFU/mL in final volume). Amoxicillin was used as a positive control, and distilled water as a negative control. The microtiter plates were incubated at 37 °C under microaerobic conditions in moist atmosphere for 3 days. […] During the incubation, in wells with viable H. pylori urease produced by the bacteria converted urea into ammonia and carbon dioxide, changing the pH and color of a phenol red indicator in the medium (from orange to purple). The plates were examined visually for color change and OD560 was measured after 4 h in order to determine presence/absence of growth. The MIC is defined as the lowest concentration of a compound that inhibits visible growth, compared with the growth in the controls (in this case defined as presence/absence of color change). All experiments were performed in duplicate and in 3–6 independent tests.
(§2) In order to determine possible additive or even synergistic effect of inhibitors, a method with calculation of the fractional inhibitory concentration index (FICI) was used (Pillai et al, [2005]). A combination of two inhibitors was applied (w/w 1:1) in the final concentration 1 mg/mL and subsequently diluted. The FICI index was calculated as FICI = (MICA/MICa) + (MICB/MICb), where MICA = concentration of inhibitor a in combination with inhibitor b; MICa = MIC of inhibitor a, applied as a single agent; MICB = concentration of inhibitor b in combination with inhibitor a; and MICb = MIC of inhibitor b applied as a single agent. The results were interpreted as a synergistic effect if the FICI was ≤ 0.5; as an additive effect if 0.5 < FICI ≤ 1; an indifferent effect if 1 < FICI ≤ 4; and as an antagonistic effect if the FICI was > 4 (Pillai et al. [2005]).

[4] = system: H. pylori 26695 strain cells; assay: Cellular uptake (accumulation test), UV absorption detection; details: 8 h
Experimental: Cellular uptake of PNP inhibitors, formycin A (FA) and formycin B (FB), and the control compound, metronidazole (MTZ), was determined using the approach described by Zhou et al. ([2015]) for E. coli and Pseudomonas aeruginosa, adapted to conditions suitable for H. pylori cell growth. This method measures the change of extracellular drug concentration using LC–MS detection.
Overnight cultures of H. pylori wild-type 26695 strain were grown by shaking (120 rpm) at 37 °C under microaerophilic conditions (5% O2, 10% CO2, 85% N2) in BHI medium (37 g/L) supplemented with 10% Fetal Bovine Serum and 1% Helicobacter pylori Selective Supplement. Cells were collected by centrifugation (5 min at 8000 × g at room temperature). The supernatant was decanted and the cell pellets were suspended in F12 medium (with L-glutamine and sodium bicarbonate) and centrifuged again. The supernatant was decanted again and cell pellets were resuspended in such a volume of F12 medium to obtain an OD600 of 4.0. F12 medium was selected for experiments because it is a minimal medium of defined composition and is suitable for measurements on MS.
(§3) The accumulation test was carried out in 24-deep-well 2 mL flat-bottomed plates, all in a final volume of 1 mL. Three types of samples were used, generated by mixing the following components in a 1:1 ratio: (1) concentrated and resuspended cells in F12 medium, (2) a solution of the appropriate concentration of a test compound in F12 medium, (3) F12 medium.
The final concentrations of the tested compounds were 350 µM and 35 µM for formycin A and formycin B, and 35 μM for hadacidin. One set of three replicate samples was incubated at 37 °C, and the other set was incubated at 4 °C. Samples were taken at the start of the accumulation test, to check the concentration of the inhibitor at the start (named “Inhibitor_start,” “H. pylori + inhibitor_start”), then after 4 and 8 h of incubation at both temperatures. The obtained samples were centrifuged at 8000 × g for 5 min at 4 °C. The supernatant was collected for the LC–MS analysis (used for MTZ, FA, and FB uptake), UV absorption measurements (used for FA and FB uptake), and AdSS and PNP inhibition analysis (used for Hada and FB uptake).
For cellular uptake of formycin A and formycin B, UV absorption was additionally used as a detection method. […] Nevertheless, there is some overlap between these spectra, and because of that, selective observation of formycins absorption is not possible. Moreover, during the cellular uptake experiment, H. pylori cells may take some UV absorbing nutrients from the medium, as well as release some metabolic products that also absorb in the UV region. Therefore, in the cellular uptake experiment, correction for absorption caused by these processes was introduced by including samples containing just H. pylori cells in F12 medium, incubated for 4 and 8 h at both temperatures, and subtracting absorption spectra of such supernatants.
Samples in this case were the same as those evaluated by the LC–MS detection and by analysis of the inhibition of the PNP activity. The UV spectra of the supernatants, from experiments with 350 μM and at 35 μM inhibitor concentration, diluted with water 10 times and 2 times, respectively (with the absorbance of F12 medium, 10 times or 2 times diluted with water, as a reference), were measured. The absorbance at the most suitable wavelengths was used to calculate the formycin concentration. […]

[5] = system: H. pylori ATCC 26695 strain; assay: MIC by broth microdilution and FICI of 1:1 combinations, strain 26695; format: cell-based; details: Helicobacter pylori, ATCC26695, 72 h, combinations 1:1 w/w given as inhibitor a/inhibitor b
Experimental: as §1, §2

E. coli PNP = system: E. coli PNP; set-up: method as in Bzowska et al. [1992]; details: ref Bzowska et al. [1992]; cited from earlier work
[6] = ref Giziewicz and Shugar [1977], Wierzchowski and Shugar [1982], Bzowska et al. [1992] (formycins), Gottlieb and Shaw [2013] (hadacidin), cited from earlier work; for pKa (first value): Hellgren et al. [1995] (metronidazole)
[7] = molecular target: T1, purine nucleoside phosphorylase (PNP) from H. pylori 26695 strain; assay: biochemical
Experimental: (§4) Kinetic experiments with PNP, and also with AdSS, described in the section “AdSS and PNP inhibition detection of cellular uptake”, were performed on a double-beam UV/VIS spectrophotometer Cary 100, with thermostated Peltier cell holders (Varian: Agilent Technologies, Mulgrave, Vic., Australia). The inhibition constant was determined as the adjustable parameter in the global fitting of the competitive inhibition model to all data obtained, using the GraphPad Prism program (GraphPad Software, San Diego, CA, USA).

[8] = system: H. pylori 26695 strain cells; assay: Cellular uptake (accumulation test), detection by inhibition of the target enzyme (AdSS or PNP); format: cell-based; details: 8 h
Experimental: Overnight cultures of H. pylori wild-type 26695 strain were grown by shaking (120 rpm) at 37 °C under microaerophilic conditions (5% O2, 10% CO2, 85% N2) in BHI medium (37 g/L) supplemented with 10% Fetal Bovine Serum and 1% Helicobacter pylori Selective Supplement. Cells were collected by centrifugation (5 min at 8000 × g at room temperature). The supernatant was decanted and the cell pellets were suspended in F12 medium (with L-glutamine and sodium bicarbonate) and centrifuged again. The supernatant was decanted again and cell pellets were resuspended in such a volume of F12 medium to obtain an OD600 of 4.0.
as §3
The final concentrations of the tested compounds were 350 µM and 35 µM for formycin A and formycin B, and 35 μM for hadacidin. One set of three replicate samples was incubated at 37 °C, and the other set was incubated at 4 °C. […]
where Km and Vmax are the Michaelis constant and maximal velocity, respectively, and Ki is the inhibition constant of the tested inhibitor, in our case hadacidin. […] These values, together with velocity measured for any tested supernatant, Cinhibitor_start , and velocity measured when only F12 medium is present, v, are sufficient to determine inhibitor concentration, Ctested , present in a tested supernatant, using Eq. (4), which is obtained by the rearrangement of Eq. (2) and Eq. (3):4 Ctested=Cinhibitor_start1/vtested-1/v/1/vinhibitor_start-1/v
The formycin B uptake was studied in the same way, but instead of AdSS, PNP was used, since it is the target enzyme for this inhibitor. […] Specific activity is expressed as units per mg of protein (U/mg).

[9] = molecular target: adenylosuccinate synthetase (AdSS) from H. pylori 26695 strain; set-up: method as in Bubić et al. [2018]; details: H. pylori 26695 strain AdSS; ref Bubić et al. [2018]; cited from earlier work
[10] = molecular target: T1, purine nucleoside phosphorylase (PNP) from H. pylori 26695 strain; details: m^7Guo as variable substrate, global fit, 25 °C, pH 7.0, 50 mM phosphate
Experimental: as §4

P. falciparum PNP = system: P. falciparum PNP; set-up: method as in Dziekan et al. [2019]; details: solution studies; ref Dziekan et al. [2019]; cited from earlier work
[11] = starting concentration 35 µM, LC–MS, 8 h incubation, Eq. (1)
[12] = starting concentration 350 µM, LC–MS, 8 h incubation, Eq. (1)
[13] = H. pylori SS1, geometrical mean of repetitions
[14] = starting concentration 350 µM, UV absorption at 294 nm
[15] = H. pylori ATCC 26695, geometrical mean of repetitions

T1 sequence (P56463 whole entry): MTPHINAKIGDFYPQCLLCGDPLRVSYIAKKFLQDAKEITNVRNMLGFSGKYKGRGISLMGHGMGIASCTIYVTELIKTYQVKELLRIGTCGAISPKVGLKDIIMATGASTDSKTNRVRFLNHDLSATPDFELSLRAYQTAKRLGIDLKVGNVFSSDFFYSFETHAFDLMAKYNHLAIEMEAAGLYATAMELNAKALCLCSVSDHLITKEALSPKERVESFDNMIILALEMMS

Nc1ncnc2c([C@@H]3O[C@H](CO)[C@@H](O)[C@H]3O)n[nH]c12 [Formycin A]
Intracellular accumulation [1, 11]: 15.9 ± 0.5 µM
Intracellular accumulation [1, 12]: 29.5 ± 5.3 µM
Intracellular accumulation ([1]; starting concentration 350 µM, LC–MS, 8 h incubation, Eq. (1), listed as formycin A): up to 29.5 ± 5.3 µM
Ionic form at pH 7 [2]: Neutral
Ki [3]: 14 ± 1.7 µM
MIC (H. pylori SS1 strain; [13]): > 1000 µg/mL
MIC (H. pylori SS1 strain; H. pylori SS1): > 3.5 mM
Intracellular accumulation ([4]; starting concentration 35 µM, UV absorption at 305 nm): 6.7 ± 0.6 µM
Intracellular accumulation [4, 14]: 35.2 ± 7.1 µM
Intracellular accumulation ([4]; starting concentration 350 µM, UV absorption at 305 nm, Eq. (1), no correction for metabolites): 22.2 ± 7.6 µM
MIC [5, 15]: ≥ 870 µg/mL
MIC ([5]; H. pylori ATCC 26695): ≥ 3.1 mM
Ki (E. coli PNP): 5.3 ± 0.4 µM
pKa (first value) [6]: 4.6
pKa [6]: 9.7

O=c1[nH]cnc2c([C@@H]3O[C@H](CO)[C@@H](O)[C@H]3O)n[nH]c12 [Formycin B]
Intracellular accumulation [1, 11]: 2.5 ± 0.5 µM
Intracellular accumulation [1, 12]: 7.1 ± 2.5 µM
Intracellular accumulation ([1]; starting concentration 350 µM, LC–MS, 8 h incubation, Eq. (1), listed as formycin B): up to 7.1 ± 2.5 µM
Ionic form at pH 7 [2]: Neutral
MIC (H. pylori SS1 strain; [13]): ≥ 397 µg/mL
MIC (H. pylori SS1 strain; H. pylori SS1): ≥ 1.5 mM
Intracellular accumulation ([4]; starting concentration 350 µM, UV absorption at 279 nm): 3.0 ± 9.2 µM
Intracellular accumulation [4, 14]: 1.0 ± 7.4 µM
MIC [5, 15]: > 1000 µg/mL
MIC ([5]; H. pylori ATCC 26695): > 3.7 mM
Ki [7]: 0.96 ± 0.08 µM
Intracellular accumulation ([8]; starting concentration 350 µM, PNP inhibition detection): 20.2 ± 34.0 µM
pKa (first value) [6]: 0.9
pKa [6]: 8.6

O=CN(O)CC(=O)O [Hadacidin]
Ionic form at pH 7 [2]: Anion
MIC (H. pylori SS1 strain; [13]): > 1000 µg/mL
MIC (H. pylori SS1 strain; H. pylori SS1): > 8.4 mM
MIC [5, 15]: > 1000 µg/mL
MIC ([5]; H. pylori ATCC 26695): > 8.4 mM
Ki [9]: 0.19 ± 0.02 µM
Intracellular accumulation ([8]; starting concentration 35 µM, AdSS inhibition detection): 4.9 ± 4.1 µM
Intracellular accumulation ([8]; starting concentration 35 µM, AdSS inhibition detection, listed as hadacidin): does not enter H. pylori cells
pKa (first value) [6]: 3.5
pKa [6]: 9.4

Cc1ncc([N+](=O)[O-])n1CCO [Metronidazole]
Intracellular accumulation ([1]; Helicobacter pylori, 8 h, 0.5 µM): 0.37 ± 0.01 µM
Ionic form at pH 7 [2]: Neutral

C[n+]1cn([C@@H]2O[C@H](CO)[C@@H](O)[C@H]2O)c2nc(N)[nH]c(=O)c21 [m^7Guo, 7-Methylguanosine]
Km [10]: 0.0463 ± 0.0044 mM
Vmax [10]: 12.5 ± 0.5 µmol/min/mg

C=C[C@H]1C[N@@]2CC[C@H]1C[C@H]2[C@H](O)c1ccnc2ccc(OC)cc12 [quinine]
Binding affinity to P. falciparum PNP (P. falciparum PNP): low nanomolar affinity
